Results from PMC9386018, “A lymphatic-absorbed multi-targeted kinase inhibitor for myelofibrosis therapy” (Nature Communications, 2022).
Values joined by “and” are separate entries in the source; they are usually repeats but may differ in a detail not shown here. Equal entries are not always repeated.

Key:
Assay in all cases: Target kinase isoforms 10-point IC50 determination (Supplementary Fig. 7)
Format in all cases: biochemical
[1] = molecular target: Target kinase isoforms (PI3K, mTOR, RAF, MEK) (Homo sapiens, UniProt P42336); details: PI3K alpha
How it was run: (§1)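 Kinase activity across a 10-point dose series was corrected and normalized to vehicle-treated controls. IC50 values were derived by non-linear regression of percent activity. Kinome-wide percent inhibition was averaged over replicates.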

[2] = molecular target: Target kinase isoforms (PI3K, mTOR, RAF, MEK) (Homo sapiens, UniProt P42345); details: mTOR
How it was run: as §1

[3] = molecular target: Target kinase isoforms (PI3K, mTOR, RAF, MEK) (Homo sapiens, UniProt P42338); details: PI3K beta
How it was run: as §1

[4] = molecular target: T1, Target kinase isoforms (PI3K, mTOR, RAF, MEK) (Homo sapiens, UniProt O00329); details: PI3K delta
T1 sequence (O00329 1-1044): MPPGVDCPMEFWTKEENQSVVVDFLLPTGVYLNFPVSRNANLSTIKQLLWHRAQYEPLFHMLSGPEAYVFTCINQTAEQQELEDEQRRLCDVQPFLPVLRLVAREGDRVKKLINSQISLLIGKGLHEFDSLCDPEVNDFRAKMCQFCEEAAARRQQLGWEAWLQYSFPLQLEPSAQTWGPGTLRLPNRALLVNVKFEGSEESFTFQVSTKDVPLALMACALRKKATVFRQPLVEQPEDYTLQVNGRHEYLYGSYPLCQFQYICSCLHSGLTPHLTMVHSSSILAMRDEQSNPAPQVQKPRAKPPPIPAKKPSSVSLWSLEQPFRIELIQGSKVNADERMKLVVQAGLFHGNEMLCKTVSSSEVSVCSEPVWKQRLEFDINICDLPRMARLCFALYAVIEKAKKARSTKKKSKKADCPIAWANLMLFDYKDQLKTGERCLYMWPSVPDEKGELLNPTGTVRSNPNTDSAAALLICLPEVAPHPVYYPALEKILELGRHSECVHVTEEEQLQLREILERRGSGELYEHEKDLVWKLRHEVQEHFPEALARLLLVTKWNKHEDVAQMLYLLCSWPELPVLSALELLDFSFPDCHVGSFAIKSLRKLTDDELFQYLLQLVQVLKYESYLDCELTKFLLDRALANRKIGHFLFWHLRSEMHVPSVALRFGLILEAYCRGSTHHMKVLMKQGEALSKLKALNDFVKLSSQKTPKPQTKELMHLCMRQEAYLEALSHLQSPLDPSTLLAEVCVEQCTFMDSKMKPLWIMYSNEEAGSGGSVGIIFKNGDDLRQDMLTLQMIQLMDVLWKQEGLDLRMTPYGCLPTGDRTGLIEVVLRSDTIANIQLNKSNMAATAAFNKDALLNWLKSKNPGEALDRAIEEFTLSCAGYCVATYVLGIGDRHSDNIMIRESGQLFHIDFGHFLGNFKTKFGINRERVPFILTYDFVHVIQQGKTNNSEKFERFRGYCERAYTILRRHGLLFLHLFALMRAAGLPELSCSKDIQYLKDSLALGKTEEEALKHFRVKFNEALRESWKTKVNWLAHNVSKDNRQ
How it was run: as §1

[5] = concentration 0.495 nM, 0.000495 µM
[6] = concentration 1.52 nM, 0.00152 µM
[7] = concentration 4.57 nM, 0.00457 µM
[8] = concentration 41.2 nM, 0.0412 µM
[9] = concentration 0.0187 nM, 18.7 pM
[10] = concentration 0.0562 nM, 56.2 pM

Sequence of Target kinase isoforms (PI3K, mTOR, RAF, MEK) (Homo sapiens, UniProt P42338) (P42338 whole entry, canonical isoform): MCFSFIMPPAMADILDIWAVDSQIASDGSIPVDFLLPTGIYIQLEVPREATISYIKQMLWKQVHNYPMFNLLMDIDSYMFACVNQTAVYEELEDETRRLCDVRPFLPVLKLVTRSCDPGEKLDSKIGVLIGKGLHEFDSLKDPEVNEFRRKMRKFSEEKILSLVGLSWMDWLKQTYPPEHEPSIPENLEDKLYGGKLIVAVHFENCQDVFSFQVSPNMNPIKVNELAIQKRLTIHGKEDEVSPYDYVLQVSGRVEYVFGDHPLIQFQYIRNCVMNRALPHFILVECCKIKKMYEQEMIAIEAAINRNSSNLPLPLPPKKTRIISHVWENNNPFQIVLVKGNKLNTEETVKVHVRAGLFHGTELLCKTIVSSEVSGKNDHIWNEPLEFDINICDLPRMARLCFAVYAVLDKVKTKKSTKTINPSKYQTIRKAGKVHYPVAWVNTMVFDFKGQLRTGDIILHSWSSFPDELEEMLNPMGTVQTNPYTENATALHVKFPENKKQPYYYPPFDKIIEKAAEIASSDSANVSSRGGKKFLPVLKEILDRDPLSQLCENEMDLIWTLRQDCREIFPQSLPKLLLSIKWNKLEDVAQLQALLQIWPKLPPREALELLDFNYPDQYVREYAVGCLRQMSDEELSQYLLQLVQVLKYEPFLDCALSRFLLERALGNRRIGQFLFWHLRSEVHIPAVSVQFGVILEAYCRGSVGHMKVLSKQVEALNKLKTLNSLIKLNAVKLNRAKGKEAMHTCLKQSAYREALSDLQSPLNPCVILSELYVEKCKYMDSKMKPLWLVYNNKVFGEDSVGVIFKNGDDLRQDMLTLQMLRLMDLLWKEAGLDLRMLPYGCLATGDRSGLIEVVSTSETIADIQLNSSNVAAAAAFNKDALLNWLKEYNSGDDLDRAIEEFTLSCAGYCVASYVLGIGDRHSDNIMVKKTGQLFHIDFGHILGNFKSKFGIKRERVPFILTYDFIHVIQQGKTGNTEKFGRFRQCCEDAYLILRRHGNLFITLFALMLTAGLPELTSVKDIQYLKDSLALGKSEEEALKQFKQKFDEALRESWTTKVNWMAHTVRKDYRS
Sequence of Target kinase isoforms (PI3K, mTOR, RAF, MEK) (Homo sapiens, UniProt P42336) (P42336 whole entry, canonical isoform): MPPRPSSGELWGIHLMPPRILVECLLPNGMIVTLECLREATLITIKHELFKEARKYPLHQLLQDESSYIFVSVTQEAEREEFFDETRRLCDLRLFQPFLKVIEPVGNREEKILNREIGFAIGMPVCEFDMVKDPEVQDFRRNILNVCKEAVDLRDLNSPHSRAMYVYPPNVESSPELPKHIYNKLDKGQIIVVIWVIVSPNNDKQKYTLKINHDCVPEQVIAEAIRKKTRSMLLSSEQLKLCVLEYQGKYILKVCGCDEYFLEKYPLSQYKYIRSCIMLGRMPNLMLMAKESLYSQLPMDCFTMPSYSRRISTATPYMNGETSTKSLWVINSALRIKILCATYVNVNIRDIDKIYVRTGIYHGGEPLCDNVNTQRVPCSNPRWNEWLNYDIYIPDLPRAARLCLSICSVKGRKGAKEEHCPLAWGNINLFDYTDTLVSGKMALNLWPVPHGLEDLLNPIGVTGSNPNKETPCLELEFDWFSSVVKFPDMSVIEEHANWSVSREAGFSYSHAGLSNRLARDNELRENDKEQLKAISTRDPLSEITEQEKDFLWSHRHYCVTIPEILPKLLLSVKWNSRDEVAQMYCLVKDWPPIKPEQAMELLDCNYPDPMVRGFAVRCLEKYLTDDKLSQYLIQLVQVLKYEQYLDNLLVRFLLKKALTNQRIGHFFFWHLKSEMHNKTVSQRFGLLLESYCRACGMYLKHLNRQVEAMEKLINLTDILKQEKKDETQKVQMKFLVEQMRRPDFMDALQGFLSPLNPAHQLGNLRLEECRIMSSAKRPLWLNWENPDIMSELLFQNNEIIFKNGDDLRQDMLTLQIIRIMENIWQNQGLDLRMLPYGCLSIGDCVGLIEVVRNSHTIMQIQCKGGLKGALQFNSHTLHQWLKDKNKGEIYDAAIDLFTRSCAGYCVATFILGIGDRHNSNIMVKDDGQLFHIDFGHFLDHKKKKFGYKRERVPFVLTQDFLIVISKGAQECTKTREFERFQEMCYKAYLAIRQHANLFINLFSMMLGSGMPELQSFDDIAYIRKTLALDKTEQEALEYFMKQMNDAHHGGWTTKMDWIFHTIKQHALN

With `O=S(=O)(Nc1cc(-c2ccc3ncc(N4CCNCC4)nc3c2)cnc1Cl)c1ccc(F)cc1` [LP-527, N-(2-chloro-5-(3-(piperazin-1-yl)quinoxalin-6-yl)pyridin-3-yl)-4-fluorobenzenesulfonamide] the “Kinase Activity (%) PI3K alpha” value ([1]; concentration 0.00626 nM, 6.26 pM) was 96% and 108% and 85% and 101%, the activity at 18.8 pM ([1]; concentration 0.0188 nM) was 97% and the “Kinase Activity (%) PI3K alpha” value ([1]; concentration 0.0188 nM, 18.8 pM) was 110% and 96% and 100%. The activity at 56.4 pM ([1]; concentration 0.0564 nM) was 104%, the “Kinase Activity (%) PI3K alpha” value ([1]; concentration 0.0564 nM, 56.4 pM) was 103% and 96% and 99% and the activity at 0.000495 µM ([1]; concentration 0.495 nM) was 47%. The “Kinase Activity (%) PI3K alpha” value [1, 5] was 55% and 56% and 58%, the activity at 0.00152 µM ([1]; concentration 1.52 nM) was 29% and the “Kinase Activity (%) PI3K alpha” value [1, 6] was 28% and 30% and 31%. The activity at 0.00457 µM ([1]; concentration 4.57 nM) was 15%, the “Kinase Activity (%) PI3K alpha” value [1, 7] was 11% and 9% and the “Kinase Activity (%) PI3K alpha” value [1, 8] was 3% and 2% and 0%. The activity at 0.000495 µM ([2]; concentration 0.495 nM) was 96%, the “Kinase Activity (%) mTOR” value [2, 5] was 89% and 90% and 92% and the activity at 0.00152 µM ([2]; concentration 1.52 nM) was 78%. For the same compound, the “Kinase Activity (%) mTOR” value [2, 6] was 80% and 77% and 74% and 83% and 76%, the activity at 0.00457 µM ([2]; concentration 4.57 nM) was 63% and the “Kinase Activity (%) mTOR” value [2, 7] was 61% and 56% and 52% and 57% and 58%. The “Kinase Activity (%) mTOR” value ([2]; concentration 123 nM, 0.123 µM) was 7% and 3% and 2% and 5% and 0%, the “Kinase Activity (%) mTOR” value ([2]; concentration 1110 nM, 1.11 µM) was 5% and 3% and 2% and -4% and -2% and -1% and the “Kinase Activity (%) mTOR” value ([2]; concentration 3330 nM, 3.33 µM) was 3% and 2% and 1% and -3% and -2% and -4%. The “Kinase Activity (%) mTOR” value ([2]; concentration 10000 nM, 10 µM) was 6% and 3% and 0% and -1% and 1% and -2%, the “Kinase Activity (%) PI3K beta” value [3, 9] was 86% and 99% and 98% and the “Kinase Activity (%) PI3K beta” value [3, 10] was 94% and 122% and 99% and 98%. For the same compound, the “Kinase Activity (%) PI3K beta” value [3, 5] was 87% and 91% and 92% and 97% and 104% and 103% and 82% and 98%, the “Kinase Activity (%) PI3K beta” value ([3]; concentration 123 nM, 0.123 µM) was 6% and 7% and 8% and 13% and the activity at […] ([3]; concentration 370 nM) was 4%. The “Kinase Activity (%) PI3K beta” value ([3]; concentration 370 nM, […]) was 3%, the activity at 1.11 µM ([3]; concentration 1110 nM) was 5% and the “Kinase Activity (%) PI3K beta” value ([3]; concentration 1110 nM, 1.11 µM) was 3%. The “Kinase Activity (%) PI3K beta” value ([3]; concentration 3330 nM, 3.33 µM) was 7% and 6% and 3%, the “Kinase Activity (%) PI3K beta” value ([3]; concentration 10000 nM, 10 µM) was 7% and 0% and 3% and the activity at 6.09 pM ([3]; concentration […]) was 108%. The “Kinase Activity (%) PI3K delta” value [4, 9] was 106% and 96% and 89% and 81%, the “Kinase Activity (%) PI3K delta” value [4, 10] was 100% and 95% and 78% and 86% and 79% and 91% and the “Kinase Activity (%) PI3K delta” value [4, 8] was 2% and 3%. For the same compound, the “Kinase Activity (%) PI3K delta” value ([4]; concentration 123 nM, 0.123 µM) was 1% and 3%, the “Kinase Activity (%) PI3K delta” value ([4]; concentration 370 nM, […]) was 2% and the activity at 1.11 µM ([4]; concentration 1110 nM) was 0%. The “Kinase Activity (%) PI3K delta” value ([4]; concentration 3330 nM, 3.33 µM) was 2% and the “Kinase Activity (%) PI3K delta” value ([4]; concentration 10000 nM, 10 µM) was 9%.
